Entries after “also recorded” stand apart in the source; their conditions may differ. Where two headings read alike, the source gives them in different places.
Columns and labels:
[1] = test system: BJ-TERT/LT/ST/RAS^V12 cells; assay: Suppression of erastin-induced cell death (suppressor screen and follow-up); assay type: cell-based, human; conditions: co-treatment with erastin
[2] = test system: BJ-TERT/LT/ST/RAS^V12 cells; assay: Alamar Blue viability assay; assay type: cell-based, human; conditions: for IC50: BJ-TERT/LT/ST/RAS^V12 (BJELR) cells, read-out: IC50 (lethality); for Selective lethality / activity of erastin analog: BJ-TERT/LT/ST/RAS^V12 cells versus BJ-TERT cells
Description: (a) Calu-1 lung carcinoma cells harboring oncogenic KRAS were infected with lentivirus containing shRNAs targeting KRAS or GFP. Sequences of shRNAs are indicated by starting nucleotide (nt) in the KRAS mRNA coding sequence. Cells were treated with erastin and viability measured by Trypan Blue exclusion. (b) Knockdown of KRAS was confirmed by western blot. (c,d) A673 cells harboring oncogenic BRAF were infected with lentiviral shRNAs targeting BRAF exon 5 (c) or the 5′ UTR (d), luciferase (LUC) (c) or GFP (d). Cells were treated with erastin and viability measured using Alamar Blue (c) and Trypan Blue (d). (e) Knockdown of BRAF was confirmed by western blot. […] BJ-TERT/LT/ST/RAS^V12 cells were treated with erastin alone or in with a MEK inhibitor U0126 (20 μM), MEK inhibitor I (10 μM) or MEK 1/2 inhibitor (50 μM). After 48 h, viability was determined using Trypan Blue. (g) Structures of certain erastin and related analogs. (h) and (i) Dose-response curves were measured for erastin A3 and erastin B2 in BJ-TERT/LT/ST/RAS^V12 cells (black squares) or BJ-TERT cells (grey circles). (j) Calu-1 lung carcinoma cells harboring oncogenic KRAS were infected with lentivirus containing shRNAs targeting KRAS or GFP. Sequences of shRNAs are indicated by starting nucleotide (nt) in the KRAS mRNA coding sequence. Cells were treated with erastin and viability (y-axis) measured by Trypan Blue exclusion. Cells were treated with erastin for 24 hours, and percent inhibition of viability (y-axis) measured using Alamar Blue (k) and Trypan Blue (l). (m) Structures of erastin and related analogs. (n) Dose-response curves were measured for erastin A6, erastin B2, erastin A8 and erastin A9 in BJ-TERT/LT/ST/RAS^V12 cells (squares) or BJ-TERT cells (circles) using Alamar Blue.
Alamar Blue metabolism: 10% Alamar Blue was added to assay plates, which were then incubated for an additional 16 hours. Red fluorescence, resulting from reduction of Alamar Blue, was detected on a Victor3 platereader (ex: 530, em: 590).
Table 2. Activity of RAS-selective lethal compound erastin in tumor cell lines. IC50 values (ng/mL) are shown using the Alamar Blue viability assay. BJ engineered tumor cells express TERT, LT, ST, and oncogenic RAS. Isogenic RAS^V12 lacking cells are identical but lack HRAS^V12. BJ-DRD cells are derived from BJ cells and contain TERT, oncogenic RAS, a truncated from of p53 (p53DD) that disrupts the tetramerization of endogenous p53, a CDK4(R24C) mutant resistant to inhibition by p16INK4A and p151NK4B (the major negative regulators of CDK4) and cyclin D1. These latter protein substitute for LT. HCT-116, A549, Calu-1, and MIA PaCa-2 are tumor cells derived from cancers (colon, lung, lung and pancreatic, respectively) known to have activating mutations in RAS.

[3] = target: T1, VDAC2 (Homo sapiens, UniProt P45880); assay: VDAC2 binding assay (competition with radiolabelled erastin A9); conditions: competition with tritium-labeled erastin A9
T1 construct: hexahistidine (pET-15b, thrombin site) (N); made in house; host or cells: E. coli
T1 sequence (P45880 1-294): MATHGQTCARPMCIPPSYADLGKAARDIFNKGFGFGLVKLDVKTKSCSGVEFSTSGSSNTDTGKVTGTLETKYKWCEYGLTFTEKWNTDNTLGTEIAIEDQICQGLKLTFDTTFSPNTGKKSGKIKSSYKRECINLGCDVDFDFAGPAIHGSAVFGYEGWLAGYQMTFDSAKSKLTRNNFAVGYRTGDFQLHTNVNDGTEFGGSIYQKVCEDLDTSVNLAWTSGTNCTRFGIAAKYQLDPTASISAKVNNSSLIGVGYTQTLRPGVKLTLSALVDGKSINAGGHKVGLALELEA
Description: Given the interactions between erastin and VDAC using affinity-based target identification and VDAC functional assays, the direct binding of erastin to VDACs was investigated.
VDAC2 protein was isolated from E. coli using a modified version of the protocol originally described by Koppel et al. Bacterial cultures were grown in LB containing 50 mg/L ampicillin to an OD of 0.6, and induced using […] IPTG overnight. Cultures were harvested by centrifugation at 6000×g for 10 min. The pellet was then washed with dH2O and resuspended in buffer (20% sucrose, 20 mM Tris, pH 8.0, […] lysozyme) and incubated at 25° C. for 10 minutes. The lysate was then sonicated for 2×30 seconds and centrifuged at 15000×g for 20 minutes. The pellet was resuspended in resuspension buffer (4.5 M guanidine-HCl, 0.1M NaCl, 20 mM Tris, pH 8.0) and incubated for 1 hour at 25° C. The suspension was then centrifuged (20 minutes, 15000×g), and the supernatant was loaded on a NI-NTA Superflow column (Qiagen) pre-equilibrated with 5 volumes of resuspension buffer. The column was washed with 5 column volumes of resuspension buffer containing 10 mM imidazole. The protein was then eluted using resuspension buffer containing 225 mM imidazole. The eluate was dialysed against 0.1 M NaCl, 20 mM Tris, pH 8.0, and 2% LDAO (Fluka) overnight, and then concentrated via centrifugation to 4 mg/mL.
To assay direct binding of erastin analogs, 40 μg of purified VDAC2 was resuspended in 100 μL of Binding Buffer (25 mM HEPES, pH 8.0, 0.1% BSA, 7 mM MgCl2, 15 mM NaCl), and incubated in the presence of 20 μM radiolabelled erastin A9 and erastin A9 or erastin A8 for 15 minutes. The mixture was then deposited onto Protran BA85 0.45 μM binding filters (Whatman) using vacuum filtration. The filter was rinsed 5 times with 1 mL wash buffer (25 mM HEPES, 0.1% BSA), and then incubated in 5 mL scintillation liquid (Cytoscint, MP Biomedicals). Radioactivity was detected on a LKB Wallac 1211 RACKBETA Liquid Scintillation Counter.

[4] = test system: CCRF-CEM parental cells; assay: Cell death in taxol/vinblastine resistance panel; assay type: cell-based; conditions: Homo sapiens
Description: (§1) In certain embodiments, the sensitivity to erastin, can be tested in cell lines that are resistant to taxol and vinblastine. The sensitivity of CCRF-CEM parental, and taxol and vinblastine resistant derivative cells to erastin was tested. […] Erastin analogues can be tested to ensure their effectiveness in inducing cell death in tumor cell line which are resistant to taxol or vinblastin, or other ant-tumor agents.

[5] = test system: taxol resistant CCRF-CEM derivative cells; assay: Cell death in taxol/vinblastine resistance panel; assay type: cell-based; conditions: Homo sapiens
Description: as §1

[6] = test system: vinblastine resistant CCRF-CEM derivative cells; assay: Cell death in taxol/vinblastine resistance panel; assay type: cell-based; conditions: Homo sapiens
Description: as §1

Cn1cnc(N)c2ncnc1-2 [3-methyladenine]
Effect on erastin-induced cell death [1]: not suppressed

COC(=O)CC(NC(=O)OC(C)(C)C)C(=O)CF (centres unmarked) [Boc-Asp(Ome)-fluoromethyl ketone]
Effect on erastin-induced cell death [1]: does not block cell death induced by erastin

Oc1ncnc2[nH]ncc12 [allopurinol]
Effect on erastin-induced cell death [1]: did not affect erastin-induced cell death

Cc1c(C)c2c(c(C)c1O)CC[C@@](C)(CCC[C@H](C)CCC[C@H](C)CCCC(C)C)O2 [alpha-tocopherol]
Effect on erastin-induced cell death [1]: prevented erastin-induced death

CC1=C(/C=C/C(C)=C/C=C/C(C)=C/C=C/C=C(C)/C=C/C=C(C)/C=C/C2=C(C)CCCC2(C)C)C(C)(C)CCC1 [beta-carotene]
Effect on erastin-induced cell death [1]: prevented erastin-induced death

Cc1cc(C(C)(C)C)c(O)c(C(C)(C)C)c1 [butylated hydroxytoluene]
Effect on erastin-induced cell death [1]: prevented erastin-induced death

CC(C)(Oc1ccc(C2CC2(Cl)Cl)cc1)C(=O)O (centres unmarked) [ciprofibrate]
Effect on erastin-induced cell death [1]: did not affect erastin-induced cell death

C[C@@H]1C[C@@H]([C@H](O)CC2CC(=O)NC(=O)C2)C(=O)[C@@H](C)C1 [cyclohexamide]
Effect on erastin-induced cell death [1]: suppressed

CCOc1ccccc1-n1c(C(C)N2CCN(C(=O)COc3ccc(CN)cc3)CC2)nc2ccccc2c1=O (centres unmarked) [erastin A3]
IC50 [2]: 25 µM | Selective lethality / activity of erastin analog [2]: retained the ability to selectively kill BJ-TERT/LT/ST/RAS^V12 cells; also recorded: retained the ability to kill BJ-TERT/LT/ST/RAS^V12 cells but not BJ-TERT cells

CCOc1ccccc1-n1c(C(C)N2CCN(C(=O)COc3ccc(CN)cc3)CC2)nc2ccccc2c1=O (centres unmarked) [erastin A6, 2-(1-{4-[2-(4-Aminomethyl-phenoxy)-acetyl]-piperazin-1-yl}-ethyl)-3-(2-ethoxy-phenyl)-3H-quinazolin-4-one]
Selective lethality / activity of erastin analog ([2]; listed as ERA-A6): selectively lethal to RAS^V12-expressing cells

CCOc1ccccc1-n1c(C(C)N2CCN(C(=O)COc3ccc(Cl)cc3)CC2)nc2cc(NC(C)=O)ccc2c1=O (centres unmarked) [erastin A9, N-[2-(1-{4-[2-(4-chloro-phenoxy)-acetyl]-piperazin-1-yl}-ethyl)-3-(2-ethoxy-phenyl)-4-oxo-3,4-dihydro-quinazolin-7-yl]-acetamide]
Direct binding to VDAC2 [3]: directly binds VDAC2 | Kd [3]: 0.112 µM | IC50 ([2]; Homo sapiens): 1.9 µM

CC(C)NC(=O)N(CCN1CCN(C(=O)COc2ccc(Cl)cc2)CC1)Cc1ccc(F)cc1 [erastin B1]
IC50 [2]: 10 µM | Selective lethality / activity of erastin analog [2]: inactive

CC(C)NC(=O)N(CCN1CCN(C(=O)COc2ccc(Cl)cc2)CC1)Cc1ccc(CN)cc1 [erastin B2, 1-(4-Aminomethyl-benzyl)-1-(2-{4-[2-(4-chloro-phenoxy)-acetyl]-piperazin-1-yl}-ethyl)-3-isopropyl-urea]
Selective lethality / activity of erastin analog [2]: lacking activity in cells; also recorded: lacks activity | IC50 ([2]; Homo sapiens): > 50 µM

COc1ccc2[nH]cc(CCNC(C)=O)c2c1 [melatonin]
Effect on erastin-induced cell death [1]: did not affect erastin-induced cell death

O=c1[nH]c(=O)c2c[nH]nc2[nH]1 [oxypurinol]
Effect on erastin-induced cell death [1]: did not affect erastin-induced cell death

CC(=O)O[C@H]1C(=O)[C@@]2(C)[C@H]([C@H](OC(=O)c3ccccc3)[C@]3(O)C[C@H](OC(=O)[C@H](O)[C@@H](NC(=O)c4ccccc4)c4ccccc4)C(C)=C1C3(C)C)[C@]1(OC(C)=O)CO[C@@H]1C[C@@H]2O [taxol]
IC50 [4]: 0.001 µM | IC50 [5]: 0.56 µM | IC50 [6]: 1.38 µM

CC[C@]1(O)C[C@@H]2CN(CCc3c([nH]c4ccccc34)[C@@](C(=O)OC)(c3cc4c(cc3OC)N(C)[C@H]3[C@@](O)(C(=O)OC)[C@H](OC(C)=O)[C@]5(CC)C=CCN6CC[C@]43[C@@H]65)C2)C1 [vinblastine]
IC50 [4]: 0.001 µM | IC50 [5]: 0.093 µM | IC50 [6]: 0.37 µM
